How the values were obtained:
Italian ryegrass [1] = experiment: Test A preemergence; assay type: in vivo, Lolium multiflorum; conditions: 0 to 100 scale where 0 is no effect and 100 is complete control
Outline: (§1)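 Greenhouse pot test, loam/sand soil. Formulation: non-phytotoxic solvent mix plus surfactant. Pre: directed spray onto soil after sowing. Post: plants at 1–2 leaf, 2–10 cm. Rated visually vs untreated controls at ~10 d, 0 (no effect) to 100 (complete control).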

kochia [2] = experiment: Test A postemergence; assay type: in vivo, Kochia scoparia; conditions: for Plant response rating, Kochia: 31 g ai/ha, 0 to 100 scale, 0 no effect, 100 complete control; for Kochia plant response rating: 125 g ai/ha, 0 to 100 scale where 0 is no effect and 100 is complete control
Outline: as §1

pigweed [3] = experiment: Test A preemergence; assay type: in vivo, Amaranthus retroflexus; conditions: 0 to 100 scale where 0 is no effect and 100 is complete control
Outline: as §1

ragweed [4] = experiment: Test A preemergence; assay type: in vivo, Ambrosia elatior; conditions: 0 to 100 scale where 0 is no effect and 100 is complete control
Outline: as §1

sedge, umbrella = experiment: Test B flooded paddy test; assay type: in vivo, Cyperus difformis; conditions: Flood, 250 g ai/ha; 0 to 100 scale where 0 is no effect and 100 is complete control
Outline: (§2)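 Post-emergence paddy-water application at the 2-leaf stage, with 3 cm flood kept for the whole test. Response was judged visually relative to controls after 13 to 15 greenhouse days, 0 indicating no effect and 100 complete control.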

galium = experiment: Test A postemergence; assay type: in vivo, Galium aparine; conditions: for Plant response rating, Galium: 31 g ai/ha, 0 to 100 scale, 0 no effect, 100 complete control; for Galium plant response rating: 125 g ai/ha, 0 to 100 scale where 0 is no effect and 100 is complete control
Outline: as §1

rice = experiment: Test B flooded paddy test; assay type: in vivo, Oryza sativa; conditions: Flood, 250 g ai/ha; 0 to 100 scale where 0 is no effect and 100 is complete control
Outline: as §2

kochia [5] = experiment: Test A preemergence; assay type: in vivo, Kochia scoparia; conditions: 0 to 100 scale where 0 is no effect and 100 is complete control
Outline: as §1

corn = experiment: Test A postemergence; assay type: in vivo, Zea mays; conditions: for Plant response rating, Corn: 31 g ai/ha, 0 to 100 scale, 0 no effect, 100 complete control; for Corn plant response rating: 125 g ai/ha, 0 to 100 scale where 0 is no effect and 100 is complete control
Outline: as §1

ragweed [6] = experiment: Test A postemergence; assay type: in vivo, Ambrosia elatior; conditions: for Plant response rating, Ragweed: 31 g ai/ha, 0 to 100 scale, 0 no effect, 100 complete control; for Ragweed plant response rating: 125 g ai/ha, 0 to 100 scale where 0 is no effect and 100 is complete control
Outline: as §1

Italian ryegrass [7] = experiment: Test A postemergence; assay type: in vivo, Lolium multiflorum; conditions: for Plant response rating, Ryegrass, Italian: 31 g ai/ha, 0 to 100 scale, 0 no effect, 100 complete control; for Ryegrass, Italian plant response rating: 125 g ai/ha, 0 to 100 scale where 0 is no effect and 100 is complete control
Outline: as §1

pigweed [8] = experiment: Test A postemergence; assay type: in vivo, Amaranthus retroflexus; conditions: for Plant response rating, Pigweed: 31 g ai/ha, 0 to 100 scale, 0 no effect, 100 complete control; for Pigweed plant response rating: 125 g ai/ha, 0 to 100 scale where 0 is no effect and 100 is complete control
Outline: as §1

barnyardgrass [9] = experiment: Test A preemergence; assay type: in vivo, Echinochloa crus-galli; conditions: 0 to 100 scale where 0 is no effect and 100 is complete control
Outline: as §1

giant foxtail [10] = experiment: Test A postemergence; assay type: in vivo, Setaria faberii; conditions: for Plant response rating, Foxtail, Giant: 31 g ai/ha, 0 to 100 scale, 0 no effect, 100 complete control; for Foxtail, Giant plant response rating: 125 g ai/ha, 0 to 100 scale where 0 is no effect and 100 is complete control
Outline: as §1

wheat = experiment: Test A postemergence; assay type: in vivo, Triticum aestivum; conditions: for Plant response rating, Wheat: 31 g ai/ha, 0 to 100 scale, 0 no effect, 100 complete control; for Wheat plant response rating: 125 g ai/ha, 0 to 100 scale where 0 is no effect and 100 is complete control
Outline: as §1

barnyardgrass [11] = experiment: Test A postemergence; assay type: in vivo, Echinochloa crus-galli; conditions: for Plant response rating, Barnyardgrass: 31 g ai/ha, 0 to 100 scale, 0 no effect, 100 complete control; for Barnyardgrass plant response rating: 125 g ai/ha, 0 to 100 scale where 0 is no effect and 100 is complete control
Outline: as §1

giant foxtail [12] = experiment: Test A preemergence; assay type: in vivo, Setaria faberii; conditions: 0 to 100 scale where 0 is no effect and 100 is complete control
Outline: as §1

barnyardgrass [13] = experiment: Test B flooded paddy test; assay type: in vivo, Echinochloa crus-galli; conditions: Flood, 250 g ai/ha; 0 to 100 scale where 0 is no effect and 100 is complete control
Outline: as §2

Heteranthera limosa = experiment: Test B flooded paddy test; assay type: in vivo; conditions: Flood, 250 g ai/ha; 0 to 100 scale where 0 is no effect and 100 is complete control
Outline: as §2

blackgrass = experiment: Test A postemergence; assay type: in vivo, Alopecurus myosuroides; conditions: for Plant response rating, Blackgrass: 31 g ai/ha, 0 to 100 scale, 0 no effect, 100 complete control; for Blackgrass plant response rating: 125 g ai/ha, 0 to 100 scale where 0 is no effect and 100 is complete control
Outline: as §1

[14] = 31 g ai/ha, visual, approximately 10 days

Compound	Plant response rating, Ryegrass, Italian (Italian ryegrass [1]; [14])	Plant response rating, Ryegrass, Italian (Italian ryegrass [1]; 125 g ai/ha)	Plant response rating, Kochia (kochia [2])	Kochia plant response rating (kochia [2])	Plant response rating, Pigweed (pigweed [3]; [14])	Plant response rating, Pigweed (pigweed [3]; 125 g ai/ha)	Plant response rating, Ragweed (ragweed [4]; [14])	Plant response rating, Ragweed (ragweed [4]; 125 g ai/ha)	Plant response rating, Sedge, Umbrella (sedge, umbrella)	Plant response rating, Galium (galium)	Galium plant response rating (galium)	Plant response rating, Rice (rice)	Plant response rating, Kochia (kochia [5]; [14])	Plant response rating, Kochia (kochia [5]; 125 g ai/ha)	Plant response rating, Corn (corn)	Corn plant response rating (corn)	Plant response rating, Ragweed (ragweed [6])	Ragweed plant response rating (ragweed [6])	Plant response rating, Ryegrass, Italian (Italian ryegrass [7])	Ryegrass, Italian plant response rating (Italian ryegrass [7])	further results
CC(C)Oc1cnn(-c2c(Br)cccc2Oc2ncc(Cl)cn2)c1 [Compound 148]	0	0	0	30	0	10	0	0	30	20	60	0	0	0	0	20	10	20	0	0	Plant response rating, Pigweed (pigweed [8]): 50; Pigweed plant response rating (pigweed [8]): 50; Plant response rating, Barnyardgrass (barnyardgrass [9]; [14]): 0; Plant response rating, Barnyardgrass (barnyardgrass [9]; 125 g ai/ha): 50; Plant response rating, Foxtail, Giant (giant foxtail [10]): 10; Foxtail, Giant plant response rating (giant foxtail [10]): 40; Plant response rating, Wheat (wheat): 0; Wheat plant response rating (wheat): 0; Plant response rating, Barnyardgrass (barnyardgrass [11]): 0; Barnyardgrass plant response rating (barnyardgrass [11]): 30; Plant response rating, Foxtail, Giant (giant foxtail [12]; [14]): 10; Plant response rating, Foxtail, Giant (giant foxtail [12]; 125 g ai/ha): 70; Plant response rating, Barnyardgrass (barnyardgrass [13]): 0; Plant response rating, Ducksalad (Heteranthera limosa): 40; Plant response rating, Blackgrass (blackgrass): 0; Blackgrass plant response rating (blackgrass): 10
CC(C)Oc1cnn(-c2c(Br)cccc2Oc2ncc(F)cn2)c1 [Compound 156]	0	0	0	40	0	0	0	0	0	20	30	0	0	10	0	10	0	40	0	0	Plant response rating, Pigweed (pigweed [8]): 10; Pigweed plant response rating (pigweed [8]): 20; Plant response rating, Barnyardgrass (barnyardgrass [9]; [14]): 0; Plant response rating, Barnyardgrass (barnyardgrass [9]; 125 g ai/ha): 30; Plant response rating, Foxtail, Giant (giant foxtail [10]): 0; Foxtail, Giant plant response rating (giant foxtail [10]): 10; Plant response rating, Wheat (wheat): 0; Wheat plant response rating (wheat): 0; Plant response rating, Barnyardgrass (barnyardgrass [11]): 0; Barnyardgrass plant response rating (barnyardgrass [11]): 10; Plant response rating, Foxtail, Giant (giant foxtail [12]; [14]): 0; Plant response rating, Foxtail, Giant (giant foxtail [12]; 125 g ai/ha): 70; Plant response rating, Barnyardgrass (barnyardgrass [13]): 0; Plant response rating, Ducksalad (Heteranthera limosa): 0; Plant response rating, Blackgrass (blackgrass): 0; Blackgrass plant response rating (blackgrass): 20
CC(C)Oc1cnn(-c2c(C#N)cccc2Oc2ncc(F)cn2)c1 [Compound 158]	30	50	60	80	50	70	40	80	0	60	100	40	50	70	0	30	60	80	20	50	Plant response rating, Pigweed (pigweed [8]): 40; Pigweed plant response rating (pigweed [8]): 50; Plant response rating, Barnyardgrass (barnyardgrass [9]; [14]): 10; Plant response rating, Barnyardgrass (barnyardgrass [9]; 125 g ai/ha): 70; Plant response rating, Foxtail, Giant (giant foxtail [10]): 20; Foxtail, Giant plant response rating (giant foxtail [10]): 70; Plant response rating, Wheat (wheat): 0; Wheat plant response rating (wheat): 0; Plant response rating, Barnyardgrass (barnyardgrass [11]): 20; Barnyardgrass plant response rating (barnyardgrass [11]): 80; Plant response rating, Foxtail, Giant (giant foxtail [12]; [14]): 60; Plant response rating, Foxtail, Giant (giant foxtail [12]; 125 g ai/ha): 90; Plant response rating, Barnyardgrass (barnyardgrass [13]): 0; Plant response rating, Ducksalad (Heteranthera limosa): 50; Plant response rating, Blackgrass (blackgrass): 50; Blackgrass plant response rating (blackgrass): 60
